Assay results from patent US20210355106A1, “NEW AMINO-PYRIMIDONYL-PIPERIDINYL DERIVATIVES, A PROCESS FOR THEIR PREPARATION AND PHARMACEUTICAL COMPOSITIONS CONTAINING THEM” (LES LABORATOIRES SERVIER, priority 2018, published 2021).

Legend:
[1] = system: Z138 mantle cell lymphoma tumour cell lines; assay: In vitro cytotoxicity, MTT assay; format: cell-based; settings: Z138 cells, exposed to the test compounds for 96 hours
Summary of the method: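 MTT viability read-out: after 96 hours of compound treatment, Z138 mantle cell lymphoma cells received MTT for 4 hours, and formazan production was quantified by absorbance at 540 nm.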

USP7 = target: T1, USP7 (Homo sapiens, UniProt Q93009, C315A); assay: Inhibition of USP7 by Fluorescence Intensity (FLINT) readings, Ubiquitin-Rhodamine-110 substrate; format: biochemical; settings: 0.25 nM His-His-USP7 (aa208-560), 60 minutes at 30° C. preincubation; Ki determined from IC50 according to Cer et al.
T1 construct: 0.25 nM His-His-USP7 (aa208-560, |C315A|) was incubated with compound; His-His (N)
Summary of the method: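 Kinetic rate of Rhodamine-110 release from ubiquitin substrate (50 nM or 4 μM), read every 3 min for 21 min, after 60 min, 30 °C preincubation of 0.25 nM USP7 catalytic domain C315A with compound. Bicine pH 8.0 buffer, 10% DMSO; 11-point IC50 vs DMSO and no-enzyme controls, converted to Ki.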

T1 sequence (Q93009 208-560 C315A): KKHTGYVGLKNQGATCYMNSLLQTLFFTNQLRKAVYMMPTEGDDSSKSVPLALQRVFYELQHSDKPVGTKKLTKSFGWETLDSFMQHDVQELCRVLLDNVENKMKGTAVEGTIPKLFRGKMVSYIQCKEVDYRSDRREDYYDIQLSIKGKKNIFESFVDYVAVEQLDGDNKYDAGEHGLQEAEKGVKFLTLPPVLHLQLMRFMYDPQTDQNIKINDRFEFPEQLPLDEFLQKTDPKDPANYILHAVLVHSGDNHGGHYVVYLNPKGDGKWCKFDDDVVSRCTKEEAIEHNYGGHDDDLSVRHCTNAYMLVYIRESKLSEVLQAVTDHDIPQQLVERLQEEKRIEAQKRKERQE

| Structure (SMILES) | Ki (USP7) [nM] | IC50 ([1]; Homo sapiens, Z-138) [nM] | IC50 [1] [nM] |
| --- | --- | --- | --- |
| Cn1c(C(=O)N2CC[C@@H](C(=O)N3CCC(O)(Cn4cnc(Oc5ccc(F)cc5)c(N)c4=O)CC3)[C@H](c3ccccc3)C2)cc2ccccc21 [Example 37, 5-amino-6-(4-fluorophenoxy)-3-({4-hydroxy-1-[(3R,4R)-1-(1-methyl-1H-indole-2-carbonyl)-3-phenylpiperidine-4-carbonyl]piperidin-4-yl}methyl)pyrimidin-4(3H)-one] | 13.6 | 6.66 | – |
| Cc1cc(C(=O)N2CC[C@@H](C(=O)N3CCC(O)(Cn4cnc(Oc5ccc(F)cc5)c(N)c4=O)CC3)[C@H](c3ccccc3)C2)ccn1 [Example 91, 5-amino-6-(4-fluorophenoxy)-3-[[4-hydroxy-1-[(3R,4R)-1-(2-methylpyridine-4-carbonyl)-3-phenyl-piperidine-4-carbonyl]4-piperidyl]methyl]pyrimidin-4-one] | 13 | 76 | – |
| Cc1cnc(CN2CC[C@@H](C(=O)N3CC[C@](O)(Cn4cnc(Oc5ccc(Cl)cc5)c(N)c4=O)C(F)(F)C3)[C@H](c3ccccc3)C2)cn1 [Example 221, 5-amino-6-(4-chlorophenoxy)-3-[[(4S)-3,3-difluoro-4-hydroxy-1-[(3R,4R)-1-[(5-methylpyrazin-2-yl)methyl]-3-phenyl-piperidine-4-carbonyl]-4-piperidyl]methyl]pyrimidin-4-one] | 35.5 | 10.2 | – |
| Nc1c(Oc2ccc(F)cc2)ncn(CC2(O)CCN(C(=O)[C@@H]3CCN(C(=O)c4sc(Br)c5c4OCCO5)C[C@H]3c3ccccc3)CC2)c1=O [Example 67] | 14 | – | 27.8 |
| CCOc1cccc(C(=O)N2CC[C@@H](C(=O)N3CCC(O)(Cn4cnc(Oc5ccc(F)cc5)c(N)c4=O)CC3)[C@H](c3ccccc3)C2)c1 [Example 55, 5-amino-3-({1-[(3R,4R)-1-(3-ethoxybenzoyl)-3-phenylpiperidine-4-carbonyl]-4-hydroxypiperidin-4-yl)methyl)-6-(4-fluorophenoxy)pyrimidin-4(3H)-one] | 15 | 12 | – |
| Cc1cccc(C(=O)N2CC[C@@H](C(=O)N3CCC(O)(Cn4cnc(Oc5ccc(F)cc5)c(N)c4=O)CC3)[C@H](c3ccccc3)C2)n1 [Example 93] | 51 | 86.4 | – |
| Nc1c(Oc2ccc(F)cc2)ncn(CC2(O)CCN(C(=O)[C@@H]3CCN(C(=S)Nc4ccccc4)C[C@H]3c3ccccc3)CC2)c1=O [Example 60] | 75.9 | 128 | – |
| Nc1c(Oc2ccc(F)cc2)ncn(CC2(O)CCN(C(=O)[C@@H]3CCN(C4(c5cccc(F)c5)COC4)C[C@H]3c3ccccc3)CC2)c1=O [Example 153, 5-amino-6-(4-fluorophenoxy)-3-[[1-[(3R,4R)-1-[3-(3-fluorophenyl)oxetan-3-yl]-3-phenyl-piperidine-4-carbonyl]-4-hydroxy-4-piperidyl]methyl]pyrimidin-4-one] | 28.7 | 62 | – |
| COc1cc(Oc2ncn(C[C@@]3(O)CCN(C(=O)[C@@H]4CCN(Cc5ccnc(C)n5)C[C@H]4c4ccccc4)CC3(F)F)c(=O)c2N)ccc1C1CC1 [Example 188, 5-amino-6-(4-cyclopropyl-3-methoxy-phenoxy)-3-[[(4S)-3,3-difluoro-4-hydroxy-1-[(3R,4R)-1-[(2-methylpyrimidin-4-yl)methyl]-3-phenyl-piperidine-4-carbonyl]-4-piperidyl]methyl]pyrimidin-4-one] | 69.9 | 69 | – |
| CN1CCN(c2cccc(C(=O)N3CC[C@@H](C(=O)N4CCC(O)(Cn5cnc(Oc6ccc(F)cc6)c(N)c5=O)CC4)[C@H](c4ccccc4)C3)c2)CC1 [Example 56] | 16 | 42 | – |
| Nc1c(Oc2ccc(F)cc2)ncn(CC2(O)CCN(C(=O)[C@@H]3CCN(C4(c5cccc(C(F)(F)F)c5)COC4)C[C@H]3c3ccccc3)CC2)c1=O [Example 152, 5-amino-6-(4-fluorophenoxy)-3-[[4-hydroxy-1-[(3R,4R)-3-phenyl-1-[3-[3-(trifluoromethyl)phenyl]oxetan-3-yl]piperidine-4-carbonyl]-4-piperidyl]methyl]pyrimidin-4-one] | 82 | 202 | – |
| COc1ccc(NC(=O)N2CC[C@@H](C(=O)N3CCC(O)(Cn4cnc(Oc5ccc(F)cc5)c(N)c4=O)CC3)[C@H](c3ccccc3)C2)cc1 [Example 80] | 19 | 6.2 | – |
| Nc1c(Oc2ccc(F)cc2)ncn(CC2(O)CCN(C(=O)[C@@H]3CCN(C(=O)c4cncc(C(F)(F)F)c4)C[C@H]3c3ccccc3)CC2)c1=O [Example 122, 5-amino-6-(4-fluorophenoxy)-3-[(4-hydroxy-1-{(3R,4R)-3-phenyl-1-[5-(trifluoromethyl)pyridine-3-carbonyl]piperidine-4-carbonyl}piperidin-4-yl)methyl]pyrimidin-4(3H)-one] | 13.6 | 23 | – |
| Cn1c(C(=O)N2CC[C@@H](C(=O)N3CCC(O)(Cn4cnc(Oc5ccc(F)cc5)c(N)c4=O)CC3)[C@H](c3ccccc3)C2)ccc1-c1ccccc1 [Example 38] | 14 | 11 | – |

These reach a lower Ki (USP7). Values come first.

| Ki (USP7) [nM] | Structure (SMILES) | IC50 ([1]; Homo sapiens, Z-138) [nM] | IC50 [1] [nM] |
| --- | --- | --- | --- |
| 10.1 | Cc1nc(C2CCCC2)sc1C(=O)N1CC[C@@H](C(=O)N2CCC(O)(Cn3cnc(Oc4ccc(F)cc4)c(N)c3=O)CC2)[C@H](c2ccccc2)C1 [Example 161, 5-amino-3-[[1-[(3R,4R)-1-(2-cyclopentyl-4-methyl-thiazole-5-carbonyl)-3-phenyl-piperidine-4-carbonyl]-4-hydroxy-4-piperidyl]methyl]-6-(4-fluorophenoxy)pyrimidin-4-one] | 3.63 | – |
| 6.4 | Cc1nc(N2CCOCC2)sc1C(=O)N1CC[C@@H](C(=O)N2CCC(O)(Cn3cnc(Oc4ccc(F)cc4)c(N)c3=O)CC2)[C@H](c2ccccc2)C1 [Example 64, 5-amino-6-(4-fluorophenoxy)-3-[(4-hydroxy-1-{(3R,4R)-1-[4-methyl-2-(morpholin-4-yl)-1,3-thiazole-5-carbonyl]-3-phenylpiperidine-4-carbonyl)piperidin-4-yl)methyl]pyrimidin-4(3H)-one] | 8.39 | – |
| 0.558 | NCc1ccc(Oc2ncn(C[C@@]3(O)CCN(C(=O)[C@@H]4CCN(C(=O)c5cc(Cl)cc(Cl)c5)C[C@H]4c4ccccc4)CC3(F)F)c(=O)c2N)cc1 [Example 222, 5-amino-6-[4-(aminomethyl)phenoxy]-3-[[(4S)-1-[(3R,4R)-1-(3,5-dichlorobenzoyl)-3-phenyl-piperidine-4-carbonyl]-3,3-difluoro-4-hydroxy-4-piperidyl]methyl]pyrimidin-4-one] | 74.2 | – |
| 2.2 | Cc1ccc(-c2nc(C)c(C(=O)N3CC[C@@H](C(=O)N4CCC(O)(Cn5cnc(Oc6ccc(F)cc6)c(N)c5=O)CC4)[C@H](c4ccccc4)C3)s2)cn1 [Example 47, 5-amino-6-(4-fluorophenoxy)-3-[(4-hydroxy-1-{(3R,4R)-1-[4-methyl-2-(6-methylpyridin-3-yl)-1,3-thiazole-5-carbonyl]-3-phenylpiperidine-4-carbonyl}piperidin-4-yl)methyl]pyrimidin-4(3H)-one] | 0.92 | – |
| 3 | Cc1ccc(-c2nc(C)c(C(=O)N3CC[C@@H](C(=O)N4CCC(O)(Cn5cnc(Oc6ccc(Cl)cc6)c(N)c5=O)CC4)[C@H](c4ccccc4)C3)s2)cn1 [Example 22, 5-amino-6-(4-chlorophenoxy)-3-[(4-hydroxy-1-{(3R,4R)-1-[4-methyl-2-(6-methylpyridin-3-yl)-1,3-thiazole-5-carbonyl]-3-phenylpiperidine-4-carbonyl}piperidin-4-yl)methyl]pyrimidin-4(3H)-one] | 4 | – |
| 7.1 | Cc1nc(Br)sc1C(=O)N1CC[C@@H](C(=O)N2CCC(O)(Cn3cnc(Oc4ccc(F)cc4)c(N)c3=O)CC2)[C@H](c2ccccc2)C1 [Example 29, 5-amino-3-({1-[(3R,4R)-1-(2-bromo-4-methyl-1,3-thiazole-5-carbonyl)-3-phenylpiperidine-4-carbonyl]-4-hydroxypiperidin-4-yl}methyl)-6-(4-fluorophenoxy)pyrimidin-4(3H)-one] | 1.8 | – |
| 9.76 | Nc1c(Oc2ccc(F)cc2)ncn(CC2(O)CCN(C(=O)[C@@H]3CCN(C(=O)c4cncc(-n5cccc5)c4)C[C@H]3c3ccccc3)CC2)c1=O [Example 163, 5-amino-6-(4-fluorophenoxy)-3-[[4-hydroxy-1-[(3R,4R)-3-phenyl-1-(5-pyrrol-1-ylpyridine-3-carbonyl)piperidine-4-carbonyl]-4-piperidyl]methyl]pyrimidin-4-one] | 1.41 | – |
| 2.6 | Cc1ccc(-c2ncc(CN3CC[C@@H](C(=O)N4CCC(O)(Cn5cnc(Oc6ccc(F)cc6)c(N)c5=O)CC4)[C@H](c4ccccc4)C3)s2)cn1 [Example 51, 5-amino-6-(4-fluorophenoxy)-3-({4-hydroxy-1-[(3R,4R)-1-{{2-(6-methylpyridin-3 yl)-1,3-thiazol-5-yl]methyl}-3-phenylpiperidine-4-carbonyl]piperidin-4-yl}methyl)pyrimidin-4(3H)-one] | 1.4 | – |
| 7.89 | Nc1c(Oc2ccc(F)cc2)ncn(CC2(O)CCN(C(=O)[C@@H]3CCN(Cc4cnc(Br)s4)C[C@H]3c3ccccc3)CC2)c1=O [Example 50, 5-amino-3-[[1-[(3R,4R)-1-[(2-bromothiazol-5-yl)methyl]-3-phenyl-piperidine-4-carbonyl]-4-hydroxy-4-piperidyl]methyl]-6-(4-fluorophenoxy)pyrimidin-4-one] | 6.17 | – |
